Measured values reported in the supplement of paper PMC10307832.

Experiments:
Assay in all cases: relative viability (nuclei count vs DMSO), 5 days (fraction); higher = more cells survive
[1] = compound: CC1CC(=O)N(C2=CN=C(N=C2N1C3CCCC3)NC4=C(C=C(C=C4)C(=O)NC5CCN(CC5)C)OC)C [NPK76-II-72-1] + CC1(C)CCC(c2ccc(Cl)cc2)=C(CN2CCN(c3ccc(C(=O)NS(=O)(=O)c4ccc(N[C@H](CCN5CCOCC5)CSc5ccccc5)c(S(=O)(=O)C(F)(F)F)c4)cc3)CC2)C1 [Navitoclax] (partner 0.5 µM)
Summary of the method: (§1)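 Cells from lung cancer lines were seeded into 1536-well plates and, one day later, dosed by pin tool. Treatments were either a single drug or a fixed dose of an anchor drug with five library-drug doses (not always all listed) in √10 steps. After 5 days, nuclei were stained in a one-step fixation (final 0.05% Triton X-100, 1% formaldehyde, 1 ug/ml Hoechst) and counted on 4× images, and relative viability is the treated-to-vehicle nuclei ratio, as the median of duplicate plates.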

BI-2536 = compound: CC[C@@H]1C(=O)N(C)c2cnc(Nc3ccc(C(=O)NC4CCN(C)CC4)cc3OC)nc2N1C1CCCC1 [BI-2536]
Summary of the method: (§2)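 Vehicle-anchored 1536-well plates of lung cancer cell lines, held overnight at 37 °C, were pinned with five library-drug doses (not always all listed) spaced by √10. No medium change followed over the next 5 days, after which the cells were fixed, permeabilised and Hoechst-stained together and imaged at 4×. Nuclei were counted with MetaXpress, and viability is treated-well nuclei over vehicle-well nuclei, taken as a median across plates. Plates passed with control CV below 25% and at least one doubling.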

NPK76-II-72-1 = compound: CC1CC(=O)N(C2=CN=C(N=C2N1C3CCCC3)NC4=C(C=C(C=C4)C(=O)NC5CCN(CC5)C)OC)C [NPK76-II-72-1]
Summary of the method: as §2

[2] = compound: CC1CC(=O)N(C2=CN=C(N=C2N1C3CCCC3)NC4=C(C=C(C=C4)C(=O)NC5CCN(CC5)C)OC)C [NPK76-II-72-1] + COc1cc2c(Oc3ccc(NC(=O)C4(C(=O)Nc5ccc(F)cc5)CC4)cc3F)ccnc2cc1OCCCN1CCOCC1 [Foretinib] (partner 0.25 µM)
Summary of the method: as §1

Cell Line | relative viability ([1]; first compound 0.01 µM) | relative viability ([1]; first compound 0.03162 µM) | relative viability ([1]; first compound 0.1 µM) | relative viability ([1]; first compound 0.3162 µM) | relative viability ([1]; first compound 1 µM) | relative viability (BI-2536; 0.01 µM) | relative viability (BI-2536; 0.03162 µM) | relative viability (BI-2536; 0.1 µM) | relative viability (BI-2536; 0.3162 µM) | relative viability (BI-2536; 1 µM) | relative viability (NPK76-II-72-1; 0.01 µM) | relative viability (NPK76-II-72-1; 0.03162 µM) | relative viability (NPK76-II-72-1; 0.1 µM) | relative viability (NPK76-II-72-1; 0.3162 µM) | relative viability (NPK76-II-72-1; 1 µM) | relative viability ([2]; first compound 0.01 µM) | relative viability ([2]; first compound 0.03162 µM) | relative viability ([2]; first compound 0.1 µM) | relative viability ([2]; first compound 0.3162 µM) | relative viability ([2]; first compound 1 µM)
HCC-44 | 0.997 | 0.969 | 0.915 | 0.919 | 1.11 | 1.01 | 0.996 | 0.31 | 0.155 | 0.129 | 1 | 1.04 | 0.96 | 0.969 | 1.07 |  |  |  |  | 
HCC-827 | 1.01 | 1.06 | 0.978 | 0.993 | 1.12 | 1.05 | 1.03 | 0.927 | 0.441 | 0.284 | 1.04 | 1.04 | 1.07 | 1.03 | 1.06 | 1.01 | 1.06 | 0.912 | 1.03 | 1.12
NCI-H1623 |  |  |  |  |  | 0.956 | 0.91 | 0.852 | 0.462 | 0.28 | 0.919 | 0.953 | 0.901 | 0.852 | 0.932 | 0.836 | 0.872 | 0.914 | 0.566 | 0.998
NCI-H2347 | 0.761 | 0.698 | 0.728 | 0.789 | 0.868 | 0.942 | 1.07 | 0.941 | 0.483 | 0.43 | 0.924 | 1.05 | 0.948 | 0.982 | 1.05 | 0.844 | 1.1 | 0.935 | 0.424 | 0.917
PC-14 | 1 | 1.06 | 1.03 | 0.948 | 1.07 | 0.998 | 0.926 | 0.681 | 0.0519 | 0.0481 | 0.94 | 1.05 | 0.992 | 0.997 | 1.04 | 0.936 | 1.1 | 0.894 | 0.928 | 1.01
NCI-H1651 | 0.915 | 1.04 | 1.11 | 0.953 | 1.1 | 0.961 | 0.947 | 0.915 | 0.3 | 0.109 | 0.953 | 0.939 | 0.925 | 0.979 | 1.02 | 0.811 | 0.826 | 0.825 | 0.74 | 0.953
HARA | 1.12 | 1.14 | 1.13 | 1.08 | 1.15 | 1.01 | 1.15 | 0.823 | 0.141 | 0.159 | 0.922 | 0.987 | 0.845 | 0.924 | 1.05 | 0.913 | 1.06 | 0.797 | 0.819 | 1.1
NCI-H1563 |  |  |  |  |  | 0.985 | 1.16 | 0.924 | 0.733 | 0.573 | 0.949 | 0.978 | 1 | 0.94 | 0.982 | 0.84 | 0.875 | 0.933 | 0.923 | 0.845
ABC-1 |  |  |  |  |  | 0.892 | 0.879 | 0.212 | 0.395 | 0.265 | 0.759 | 0.886 | 0.686 | 0.955 | 0.855 | 1.06 | 1.12 | 0.799 | 1.08 | 1.17
SW 900 |  |  |  |  |  | 0.883 | 0.937 | 0.696 | 0.244 | 0.205 | 0.786 | 0.757 | 0.796 | 0.936 | 0.947 | 0.864 | 1.27 | 0.852 | 0.76 | 0.947
NCI-H1648 |  |  |  |  |  | 0.98 | 0.826 | 0.63 | 0.301 | 0.267 | 0.861 | 0.943 | 0.537 | 0.719 | 0.773 |  |  |  |  | 
NCI-H1792 | 0.599 | 0.553 | 0.606 | 0.624 | 0.726 | 1.03 | 0.851 | 0.416 | 0.168 | 0.114 | 0.874 | 0.895 | 0.906 | 0.857 | 1.04 |  |  |  |  | 
LCLC-103H |  |  |  |  |  | 0.997 | 1.05 | 0.961 | 0.491 | 0.197 | 0.984 | 1.01 | 0.896 | 1.05 | 0.952 | 0.666 | 0.726 | 0.717 | 0.745 | 0.739
NCI-H358 |  |  |  |  |  | 0.981 | 0.744 | 0.204 | 0.118 | 0.136 | 0.9 | 0.976 | 1.01 |  | 1.05 | 0.575 | 0.695 | 0.915 |  | 0.769
NCI-H2342 |  |  |  |  |  | 0.818 | 0.909 | 0.865 | 0.418 | 0.393 | 1.02 | 1.08 | 0.954 | 0.823 | 1.04 | 0.948 | 1.1 | 1.09 | 0.88 | 1.15
NCI-H522 |  |  |  |  |  | 0.862 | 0.969 | 0.639 | 0.374 | 0.332 | 0.922 | 0.821 | 0.892 | 0.929 | 1.1 |  |  |  |  | 
NCI-H650 |  |  |  |  |  | 0.819 | 0.821 | 0.589 | 0.198 | 0.131 | 0.971 | 0.946 | 0.927 | 0.734 | 1.01 | 1.01 | 1.04 | 0.971 | 0.918 | 1.04
NCI-H661 |  |  |  |  |  | 1.02 | 0.95 | 0.503 | 0.327 | 0.334 | 0.966 | 1.01 | 0.97 | 0.794 | 1.01 | 0.997 | 1.01 | 1.03 | 0.909 | 1.07
